A word on the AC50: it is the midpoint of the concentration-response curve, whichever way the signal moves.

For test [1], the system named is NIH/3T3 mouse fibroblast toxicity, plate reader. Kind of test: mouse embryonic fibroblast toxicity – cell-based, plate reader, dry powder, set 2, cytotoxicity control, dose response (AID 652280).
Test in test [2]: as above
Particulars: NIH/3T3 mouse fibroblast toxicity, plate reader; at 16 µM (top of the series).

Inconclusive results are not listed. The source made the active and inactive calls. How the calls were made is not given here.

Regarding `C[C@@H]1CN([C@@H](C)CO)C(=O)c2cccc(NC(=O)c3ccncc3)c2O[C@H]1CN(C)Cc1ccc(Oc2ccccc2)cc1`, the AC50 in test [1] is 3.31 µM. For `CC(C)N1CC2(CN(Cc3ccc(F)c(F)c3)C2)Oc2c(NC(=O)c3ccncc3)cccc2C1=O`, in test [2], the activity change, negative = toxicity is -3.93% (inactive). As to `CC(C)(C)S(=O)N1Cc2cc(C(=O)NCc3ccc4c(c3)OCO4)nc(-c3cccc(C#CCC4CCCC4)c3)c2[C@H]1CCO` (stereo partly specified), the activity change, negative = toxicity in test [2] is 96.9% (inactive). Turning to `C[C@@H]1CN([C@H](C)CO)C(=O)c2cccc(NC(=O)c3ccncc3)c2O[C@H]1CN(C)Cc1ccc2c(c1)OCO2`, the activity change, negative = toxicity in test [2] is -14.9% (inactive). On to `CN(C)CC#Cc1cccc(-c2nc(C(=O)NCCCN3CCOCC3)cc3c2[C@H](CCO)N(S(=O)C(C)(C)C)C3)c1` (stereo partly specified), for which the activity change, negative = toxicity in test [2] was 16% (inactive). Still for that read-out and setting: the same measure for `CNC[C@@H]1Oc2c(NC(=O)c3ccncc3)cccc2C(=O)N(C(C)C)C[C@H]1C`: 1.96% (inactive); for `CC(C)N1CC2(CN(Cc3ccccn3)C2)Oc2c(NC(=O)c3ccncc3)cccc2C1=O`: -3.3% (inactive); for `CC(C)(C)S(=O)N1Cc2cc(C(=O)NCc3ccc4c(c3)OCO4)nc(-c3cccc(-c4cccc(F)c4)c3)c2[C@@H]1CCO` (stereo partly specified): -21.2% (inactive).

For the compound `COC[C@H](C)N1C[C@H](C)[C@@H](CN(C)Cc2ccc(Oc3ccccc3)cc2)Oc2c(NC(=O)c3ccncc3)cccc2C1=O`, in test [2], the activity change, negative = toxicity is 128% (inactive). For the compound `CC(C)(C)S(=O)N1Cc2cc(C(=O)NCc3ccc4c(c3)OCO4)nc(-c3cccc(-c4cccc(F)c4)c3)c2[C@H]1CCO` (stereo partly specified), the activity change, negative = toxicity in test [2] is 12.7% (inactive). In the case of `CCOC(=O)c1cc2c(c(-c3cccc(C#CCN(C)C)c3)n1)[C@@H](CCO)N(S(=O)C(C)(C)C)C2` (stereo partly specified), the activity change, negative = toxicity in test [2] was 21.1% (inactive). With `COc1ccc(S(=O)(=O)N(C)C[C@H]2OCCCC[C@H](C)Oc3ccc(N(C)C)cc3C(=O)N([C@H](C)CO)C[C@@H]2C)cc1`, the activity change, negative = toxicity in test [2] was 10% (inactive). `CC(=O)N1CCCCN2[C@@H](CO)[C@H](c3ccc(-c4cccc(C(=O)N(C)C)c4)cc3)[C@@H]2C1`: the activity change, negative = toxicity in test [2] is 24.4% (inactive).

For the compound `CC(C)N1C[C@@H](C)[C@H](CN(C)Cc2ccc(Oc3ccccc3)cc2)Oc2c(cccc2N(C)C(=O)c2ccncc2)C1=O`, the activity change, negative = toxicity in test [2] is -4.89% (inactive).

For `CC(C)(O)C#Cc1cccc(-c2nc(C(=O)NCc3ccc4c(c3)OCO4)cc3c2[C@H](CCO)N(S(=O)C(C)(C)C)C3)c1` (stereo partly specified), the activity change, negative = toxicity in test [2] was -19.2% (inactive). For `CN(C)C(=O)c1cccc(-c2ccc([C@@H]3[C@H]4CN(C(=O)C5CCC5)CCCCN4[C@H]3CO)cc2)c1`, the activity change, negative = toxicity in test [2] was 5.4% (inactive). Turning to `CC(C)N1C[C@@H](CN(C)Cc2ccc(Cl)cc2)Oc2c(NC(=O)c3ccccc3)cccc2C1=O`, in test [2], the activity change, negative = toxicity was 9.38% (inactive). The same measure, in the same setting: the same measure for `CN(C)CC#Cc1cccc(-c2nc(C(=O)NCc3ccc(Oc4ccccc4)cc3)cc3c2[C@@H](CCO)N(S(=O)C(C)(C)C)C3)c1` (stereo partly specified): 31.3% (inactive); for `CCN(C)C[C@H]1Oc2c(NC(=O)c3ccncc3)cccc2C(=O)N(C(C)C)[C@@H]1C`: -7.46% (inactive). Regarding `CN(C)C(=O)c1cccc(-c2ccc([C@@H]3[C@@H](CO)N4CCCCN(C(=O)C5CCC5)C[C@H]34)cc2)c1`, in test [2], the activity change, negative = toxicity was 5.21% (inactive). In the case of `CC(C)N1C[C@H](C)[C@@H](CN(C)C(=O)OC(C)(C)C)Oc2c(cccc2-c2nn[nH]n2)C1=O`, the activity change, negative = toxicity in test [2] was 34.3% (inactive).
